# Measurements reported in patent US20080038276A1, “INHIBITORS OF PLASMA KALLIKREIN” (Activesite Pharmaceuticals, Inc., priority 2006, published 2008).
# Like-named read-outs stand apart in the source and are kept apart here.
# Target: T1, Human plasma kallikrein (PK) (Homo sapiens, UniProt P03952)
# T1 construct: purchased Haemtech Technologies (Essex Junction, Vt.)
# Assay: Inhibition of human plasma kallikrein amidolytic activity (H-D-Pro-Phe-Arg-pNA cleavage, A405)
# Assay type: biochemical
# Procedure: Human plasma kallikrein (PK) was obtained from Haemtech Technologies (Essex Junction, Vt.). The enzymatic activity of PK was assayed using the synthetic peptide substrate H-D-Pro-Phe-Arg-pNA (Bachem, Inc., Switzerland) with the cleavage of the substrate by the enzyme resulting in an increase in A405, measured using a Molecular Devices Vmax Kinetic Microplate Reader. The uninhibited (control) activity of PK was determined by adding 190 μl of PK solution (1 nM in 0.05 M HEPES, pH 7.5, 0.01% Triton X-100) to 10 μl of H-D-Pro-Phe-Arg-pNA (2 mM in DMSO) in individual microtiter plate wells, mixed immediately by shaking, and the rate of increase in A405 determined over 120-180 sec. In parallel, compounds of the present invention were mixed in separate wells with the synthetic substrate to attain final concentrations of between 0.01-10 μM in the final 200 μl reaction mixture, and the reaction initiated by the addition of 190 μl of the PK solution.
# The highest concentration of either compound tested was 10 μM.
# [1] = apparent inhibition constant, 1 nM PK, pH 7.5, read-out: PK Kiapp
# [2] = Table 4 inhibition constants, read-out: Ki
# T1 sequence (P03952 391-638 limits assumed): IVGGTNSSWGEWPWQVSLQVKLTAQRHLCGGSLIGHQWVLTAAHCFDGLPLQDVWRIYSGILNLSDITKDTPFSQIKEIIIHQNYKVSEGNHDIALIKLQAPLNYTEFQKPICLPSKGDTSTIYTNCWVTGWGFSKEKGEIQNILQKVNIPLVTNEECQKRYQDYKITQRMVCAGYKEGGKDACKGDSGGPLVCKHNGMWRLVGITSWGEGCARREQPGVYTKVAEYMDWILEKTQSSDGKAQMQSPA
# T1 sequence (P03952 20-390 partner limits assumed): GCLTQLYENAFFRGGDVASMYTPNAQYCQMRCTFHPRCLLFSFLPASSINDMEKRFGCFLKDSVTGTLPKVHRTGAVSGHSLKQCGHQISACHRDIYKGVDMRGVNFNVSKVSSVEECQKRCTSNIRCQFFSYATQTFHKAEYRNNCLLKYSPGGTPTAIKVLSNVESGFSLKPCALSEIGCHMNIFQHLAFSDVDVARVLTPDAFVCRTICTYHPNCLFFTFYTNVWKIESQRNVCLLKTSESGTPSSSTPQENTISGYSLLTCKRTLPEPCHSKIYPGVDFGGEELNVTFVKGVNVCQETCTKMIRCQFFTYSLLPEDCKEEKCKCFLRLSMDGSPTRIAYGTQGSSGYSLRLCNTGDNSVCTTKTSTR
Ki [1],Structure (SMILES),other results
7660 nM,"N=C(N)c1ccc(CNC(=O)c2ccc(-c3ccccc3)s2)cc1 [ASP-523, 5-Phenyl-thiophene-2-carboxylic acid 4-carbamimidoyl-benzylamide]",–
410 nM,"Cc1cc(C(=O)NCc2ccc(C(=N)N)cc2)c(C)n1CC(F)(F)F [ASP-581, 2,5-Dimethyl-1-(2,2,2-trifluoro-ethyl)-1H-pyrrole-3-carboxylic acid 4-carbamimidoyl-benzylamide]",–
870 nM,"N=C(N)c1ccc(CNC(=O)c2cc3ccccc3o2)cc1 [ASP-485, Benzofuran-2-carboxylic acid 4-carbamimidoyl-benzylamide]",–
30 nM,"Cc1cc(C(=O)NCc2ccc(C(=N)N)cc2)c(C)n1Cc1ccccc1 [ASP-580, 1-Benzyl-2,5-dimethyl-1H-pyrrole-3-carboxylic acid 4-carbamimidoyl-benzylamide]",–
–,N=C(N)c1ccc(CNC(=O)c2cn(Cc3ccccc3)c3ccccc23)cc1 [compound 1],Ki [2]: 80 nM
2620 nM,"Cc1c(C(=O)NCc2ccc(C(=N)N)cc2)nnn1Cc1ccc(Br)cc1 [ASP-558, 1-(4-Bromo-benzyl)-5-methyl-1H-1,2,3-triazole-4-carboxylic acid 4-carbamimidoyl-benzylamide]",–
–,"N=C(N)c1ccc(CNC(=O)c2cn(Cc3ccccc3)c3ccccc23)cc1 [ASP-381, 1-Benzyl-1H-indole-3-carboxylic acid 4-carbamimidoyl-benzylamide]","Ki (PK Kiapp, apparent inhibition constant, 1 nM PK, pH 7.5): 240 nM"
2110 nM,"N=C(N)c1ccc(CNC(=O)c2csc3ccccc23)cc1 [ASP-491, Benzo[b]thiophene-3-carboxylic acid 4-carbamimidoyl-benzylamide]",–
1430 nM,"N=C(N)c1ccc(CNC(=O)c2cnn(-c3ccccc3)c2)cc1 [ASP-445, 1-Phenyl-1H-pyrazole-4-carboxylic acid 4-carbamimidoyl-benzylamide]",–
40 nM,"Cc1cc(C(=O)NCc2ccc(C(=N)N)cc2)c(C)n1-c1ccccc1 [ASP-576, 2,5-Dimethyl-1-phenyl-1H-pyrrole-3-carboxylic acid 4-carbamimidoyl-benzylamide]",–
2450 nM,"N=C(N)c1ccc(CNC(=O)c2c[nH]c3ccccc23)cc1 [ASP-493, 1H-Indole-3-carboxylic acid 4-carbamimidoyl-benzylamide]",–
–,N=C(N)c1ccc(CNC(=O)c2cnn(-c3ccccc3)c2)cc1 [compound 4],Ki [2]: 1000 nM
8870 nM,"Cc1nc(-c2ccccc2)sc1C(=O)NCc1ccc(C(=N)N)cc1 [ASP-373, 4-Methyl-2-phenyl-thiazole-5-carboxylic acid 4-carbamimidoyl-benzylamide]",–
2380 nM,"Cc1nn(Cc2ccc(F)cc2)c(Cl)c1C(=O)NCc1ccc(C(=N)N)cc1 [ASP-583, 5-Chloro-1-(4-fluoro-benzyl)-3-methyl-1H-pyrazole-4-carboxylic acid 4-carbamimidoyl-benzylamide]",–
470 nM,"N=C(N)c1ccc(CNC(=O)c2cnn(Cc3ccccc3Cl)c2)cc1 [ASP-582, 1-(2-Chloro-benzyl)-1H-pyrazole-4-carboxylic acid 4-carbamimidoyl-benzylamide]",–
170 nM,"N=C(N)c1ccc(CNC(=O)c2cn(S(=O)(=O)c3ccccc3)c3ccccc23)cc1 [ASP-383, 1-Benzenesulfonyl-1H-indole-3-carboxylic acid 4-carbamimidoyl-benzylamide]",–
2520 nM,"N=C(N)c1ccc(CNC(=O)c2cc3ccccc3[nH]2)cc1 [ASP-484, 1H-Indole-2-carboxylic acid 4-carbamimidoyl-benzylamide]",–
1640 nM,"Cc1nn(Cc2ccccc2Cl)c(C)c1C(=O)NCc1ccc(C(=N)N)cc1 [ASP-578, 1-(2-Chloro-benzyl)-3,5-dimethyl-1H-pyrazole-4-carboxylic acid 4-carbamimidoyl-benzylamide]",–
1290 nM,"Cc1oc(-c2ccccc2)cc1C(=O)NCc1ccc(C(=N)N)cc1 [ASP-466, 2-Methyl-5-phenyl-furan-3-carboxylic acid 4-carbamimidoyl-benzylamide]",–
1190 nM,"Cc1nn(Cc2c(Cl)cccc2Cl)c(Cl)c1C(=O)NCc1ccc(C(=N)N)cc1 [ASP-579, 5-Chloro-1-(2,6-dichloro-benzyl)-3-methyl-1H-pyrazole-4-carboxylic acid 4-carbamimidoyl-benzylamide]",–
1570 nM,"N=C(N)c1ccc(CNC(=O)c2cc3ccccc3s2)cc1 [ASP-486, Benzo[b]thiophene-2-carboxylic acid 4-carbamimidoyl-benzylamide]",–
1130 nM,"Cc1nn(Cc2ccccc2)c(C)c1C(=O)NCc1ccc(C(=N)N)cc1 [ASP-577, 1-Benzyl-3,5-dimethyl-1H-pyrazole-4-carboxylic acid 4-carbamimidoyl-benzylamide]",–
–,"N=C(N)c1ccc(CNC(=O)c2cn(S(=O)(=O)c3ccccc3)c3ccccc23)cc1 (single isomer, unassigned) [compound 2]",Ki [2]: 30 nM
20600 nM,"N=C(N)c1ccc(CNC(=O)c2ccc(-c3ccccn3)s2)cc1 [ASP-525, 5-Pyridin-2-yl-thiophene-2-carboxylic acid 4-carbamimidoyl-benzylamide]",–
8090 nM,"N=C(N)c1ccc(CNC(=O)c2cn(Cc3ccc(F)cc3)nn2)cc1 [ASP-559, 1-(4-Fluoro-benzyl)-1H-1,2,3-triazole-4-carboxylic acid 4-carbamimidoyl-benzylamide]",–
–,"N=C(N)c1ccc(CNC(=O)c2cnn(Cc3ccccc3)c2)cc1 (single isomer, unassigned) [compound 3]",Ki [2]: 150 nM
